Measurements: paper PMC11272598, “RG7774 (Vicasinabin), an orally bioavailable cannabinoid receptor 2 (CB2R) agonist, decreases retinal vascular permeability, leukocyte adhesion, and ocular inflammation in animal models” (Frontiers in Pharmacology, 2024)

Assays:
Y1 (h) = Y1 (h) (Homo sapiens, UniProt P25929); test: CEREP radioligand binding; conditions: radioligand [^125I]-peptide YY
Source text: (§1) Supplement Table1.docx, table 3: Supplementary Table S3. RG7774 binding to non-CB1R/CB2R receptors, ion channels, transporters, and enzymes (CEREP, Celle l’Evescault, France; http://www.cerep.fr). | column: % inhibition of control SB (n = 2)

Cl- channel (GABA-gated) = test: CEREP radioligand binding; conditions: radioligand [^35S]-TBPS
Source text: as §1

D5 = D5 (Homo sapiens, UniProt P21918); test: CEREP radioligand binding; conditions: radioligand [^3H]-SCH 23390
Chain of D5 (P21918 whole entry): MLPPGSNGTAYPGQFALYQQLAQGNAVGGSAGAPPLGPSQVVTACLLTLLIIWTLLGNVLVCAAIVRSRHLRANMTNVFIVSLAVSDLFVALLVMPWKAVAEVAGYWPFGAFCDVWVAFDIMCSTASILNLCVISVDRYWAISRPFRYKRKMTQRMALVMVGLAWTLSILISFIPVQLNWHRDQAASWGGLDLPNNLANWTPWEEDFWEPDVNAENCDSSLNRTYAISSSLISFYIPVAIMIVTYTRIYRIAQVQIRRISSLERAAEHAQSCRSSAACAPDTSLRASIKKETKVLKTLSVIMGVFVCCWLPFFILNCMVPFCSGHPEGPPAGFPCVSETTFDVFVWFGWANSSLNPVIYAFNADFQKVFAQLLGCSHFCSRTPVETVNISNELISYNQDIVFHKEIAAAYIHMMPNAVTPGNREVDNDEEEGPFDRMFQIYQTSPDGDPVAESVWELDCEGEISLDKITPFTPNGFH
Source text: as §1

δ(DOP) (h) = δ(DOP) (h) (Homo sapiens, UniProt P41143); test: CEREP radioligand binding; conditions: radioligand [^3H]-DADLE
Chain of δ(DOP) (h) (P41143 whole entry): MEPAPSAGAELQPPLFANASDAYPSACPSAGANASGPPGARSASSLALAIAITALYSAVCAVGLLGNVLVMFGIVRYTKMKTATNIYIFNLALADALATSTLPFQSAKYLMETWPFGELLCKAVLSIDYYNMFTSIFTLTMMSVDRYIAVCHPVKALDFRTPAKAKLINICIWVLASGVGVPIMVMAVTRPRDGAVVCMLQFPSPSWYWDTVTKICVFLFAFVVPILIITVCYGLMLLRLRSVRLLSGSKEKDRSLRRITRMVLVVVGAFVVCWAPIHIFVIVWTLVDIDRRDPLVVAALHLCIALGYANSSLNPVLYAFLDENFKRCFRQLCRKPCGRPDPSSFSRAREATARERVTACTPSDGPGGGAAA
Source text: as §1

H1 (h) = H1 (h) (Homo sapiens, UniProt P35367); test: CEREP radioligand binding; conditions: radioligand [^3H]-pyrilamine
Chain of H1 (h) (P35367 whole entry): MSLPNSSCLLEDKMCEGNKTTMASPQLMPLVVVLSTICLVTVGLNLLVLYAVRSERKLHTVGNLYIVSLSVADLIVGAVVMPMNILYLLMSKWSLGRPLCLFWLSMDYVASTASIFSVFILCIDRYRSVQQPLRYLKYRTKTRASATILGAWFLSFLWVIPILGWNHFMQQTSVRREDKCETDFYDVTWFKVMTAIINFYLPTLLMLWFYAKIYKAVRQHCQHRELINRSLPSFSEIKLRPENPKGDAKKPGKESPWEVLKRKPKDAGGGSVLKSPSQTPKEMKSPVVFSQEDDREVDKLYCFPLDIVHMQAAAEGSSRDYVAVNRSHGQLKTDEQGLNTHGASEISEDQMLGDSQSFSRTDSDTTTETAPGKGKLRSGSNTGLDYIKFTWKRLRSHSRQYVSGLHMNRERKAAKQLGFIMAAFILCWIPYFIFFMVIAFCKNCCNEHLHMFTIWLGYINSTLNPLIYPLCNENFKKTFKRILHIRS
Source text: as §1

A2A (h) = A2A (h) (Homo sapiens, UniProt P29274); test: CEREP radioligand binding; conditions: radioligand [^3H]-CGS 21680
Chain of A2A (h) (P29274 whole entry): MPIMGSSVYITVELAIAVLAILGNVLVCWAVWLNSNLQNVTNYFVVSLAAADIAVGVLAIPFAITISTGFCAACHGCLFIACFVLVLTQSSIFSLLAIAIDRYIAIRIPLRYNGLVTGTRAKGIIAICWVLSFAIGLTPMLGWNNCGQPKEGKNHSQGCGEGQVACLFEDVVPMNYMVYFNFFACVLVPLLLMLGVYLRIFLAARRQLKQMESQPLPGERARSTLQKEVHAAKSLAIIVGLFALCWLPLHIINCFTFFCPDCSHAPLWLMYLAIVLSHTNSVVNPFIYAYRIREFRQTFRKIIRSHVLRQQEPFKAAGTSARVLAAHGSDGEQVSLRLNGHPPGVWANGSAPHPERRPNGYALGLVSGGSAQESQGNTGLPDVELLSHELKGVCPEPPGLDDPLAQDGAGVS
Source text: as §1

Alpha 1 (non-selective) = test: CEREP radioligand binding; conditions: radioligand [^3H]-prazosin
Source text: as §1

P2X = test: CEREP radioligand binding; conditions: radioligand [^3H]-α,β-MeATP
Source text: as §1

5-HT1A (h) = 5-HT1A (h) (Homo sapiens, UniProt P08908); test: CEREP radioligand binding; conditions: radioligand [^3H]-8-OH-DPAT
Chain of 5-HT1A (h) (P08908 whole entry): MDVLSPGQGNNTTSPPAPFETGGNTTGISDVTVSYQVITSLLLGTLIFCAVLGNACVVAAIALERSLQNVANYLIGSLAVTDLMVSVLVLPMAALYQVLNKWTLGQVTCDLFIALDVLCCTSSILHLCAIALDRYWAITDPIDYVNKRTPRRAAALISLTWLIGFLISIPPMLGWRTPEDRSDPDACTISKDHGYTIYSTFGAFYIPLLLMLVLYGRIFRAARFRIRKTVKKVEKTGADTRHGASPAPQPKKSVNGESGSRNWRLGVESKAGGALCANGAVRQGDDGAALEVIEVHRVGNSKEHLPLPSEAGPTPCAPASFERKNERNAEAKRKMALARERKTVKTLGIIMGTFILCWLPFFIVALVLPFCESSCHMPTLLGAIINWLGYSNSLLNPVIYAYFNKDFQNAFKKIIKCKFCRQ
Source text: as §1

CCK2 (CCKB) (h) = CCK2 (CCKB) (h) (Homo sapiens, UniProt P32239); test: CEREP radioligand binding; conditions: radioligand [^125I]-CCK-8s
Chain of CCK2 (CCKB) (h) (P32239 whole entry): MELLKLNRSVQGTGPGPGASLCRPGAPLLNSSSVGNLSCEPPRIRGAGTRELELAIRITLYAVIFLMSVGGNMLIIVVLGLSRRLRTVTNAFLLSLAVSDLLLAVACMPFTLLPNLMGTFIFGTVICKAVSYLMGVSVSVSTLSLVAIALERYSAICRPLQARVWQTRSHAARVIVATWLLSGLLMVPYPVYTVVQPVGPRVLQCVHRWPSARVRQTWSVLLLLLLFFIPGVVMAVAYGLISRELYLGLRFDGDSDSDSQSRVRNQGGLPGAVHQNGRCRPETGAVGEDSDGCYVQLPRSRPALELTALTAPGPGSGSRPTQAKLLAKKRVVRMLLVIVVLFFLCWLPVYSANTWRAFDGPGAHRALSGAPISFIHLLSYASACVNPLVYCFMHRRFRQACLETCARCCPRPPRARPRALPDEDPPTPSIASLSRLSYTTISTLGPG
Source text: as §1

5-HT2A (h) = 5-HT2A (h) (Homo sapiens, UniProt P28223); test: CEREP radioligand binding; conditions: radioligand [^3H]-ketanserin
Chain of 5-HT2A (h) (P28223 whole entry): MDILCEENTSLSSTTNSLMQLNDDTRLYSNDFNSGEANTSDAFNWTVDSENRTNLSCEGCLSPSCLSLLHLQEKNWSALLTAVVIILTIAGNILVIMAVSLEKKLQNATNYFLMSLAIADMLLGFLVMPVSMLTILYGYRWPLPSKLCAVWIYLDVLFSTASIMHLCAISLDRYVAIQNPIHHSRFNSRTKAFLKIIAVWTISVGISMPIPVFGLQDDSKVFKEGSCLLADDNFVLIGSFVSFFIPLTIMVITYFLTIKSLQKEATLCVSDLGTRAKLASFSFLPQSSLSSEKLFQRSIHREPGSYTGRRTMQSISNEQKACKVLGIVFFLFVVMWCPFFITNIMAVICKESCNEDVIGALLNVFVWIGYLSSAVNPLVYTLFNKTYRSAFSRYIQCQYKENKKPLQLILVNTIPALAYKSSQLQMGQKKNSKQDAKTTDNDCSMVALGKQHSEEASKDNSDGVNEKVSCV
Source text: as §1

CCR1 = CCR1 (Homo sapiens, UniProt P32246); test: CEREP radioligand binding; conditions: radioligand [^125I]-MIP-1α
Chain of CCR1 (P32246 whole entry): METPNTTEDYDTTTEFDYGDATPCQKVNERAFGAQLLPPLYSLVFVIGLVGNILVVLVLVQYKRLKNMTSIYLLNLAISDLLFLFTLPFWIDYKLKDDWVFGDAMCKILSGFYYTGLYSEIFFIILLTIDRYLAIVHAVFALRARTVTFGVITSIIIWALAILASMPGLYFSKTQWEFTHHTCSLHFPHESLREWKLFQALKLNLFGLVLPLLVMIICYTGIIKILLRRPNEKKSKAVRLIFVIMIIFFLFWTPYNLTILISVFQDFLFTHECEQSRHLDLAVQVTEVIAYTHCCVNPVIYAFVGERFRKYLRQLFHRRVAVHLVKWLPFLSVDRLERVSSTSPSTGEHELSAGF
Source text: as §1

5-HT2C (h) = 5-HT2C (h) (Homo sapiens, UniProt P28335); test: CEREP radioligand binding; conditions: radioligand [^3H]-mesulergine
Chain of 5-HT2C (h) (P28335 33-458): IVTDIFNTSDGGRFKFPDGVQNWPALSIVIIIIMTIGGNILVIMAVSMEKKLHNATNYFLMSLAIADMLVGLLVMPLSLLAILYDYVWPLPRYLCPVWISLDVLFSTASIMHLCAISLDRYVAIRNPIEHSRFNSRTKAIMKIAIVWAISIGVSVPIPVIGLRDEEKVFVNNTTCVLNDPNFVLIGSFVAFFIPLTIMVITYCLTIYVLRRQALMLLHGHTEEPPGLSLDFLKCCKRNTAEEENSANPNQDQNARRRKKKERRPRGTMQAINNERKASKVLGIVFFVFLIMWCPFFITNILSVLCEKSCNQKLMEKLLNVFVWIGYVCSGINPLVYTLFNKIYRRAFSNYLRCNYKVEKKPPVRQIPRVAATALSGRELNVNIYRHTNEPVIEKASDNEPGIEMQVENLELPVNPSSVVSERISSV
Source text: as §1

GR (h) = GR (h) (Homo sapiens, UniProt P04150); test: CEREP radioligand binding; conditions: radioligand [^3H]-dexamethasone
Source text: as §1

BZD (peripheral) = BZD (peripheral) (Rattus norvegicus, UniProt P16257); test: CEREP radioligand binding; conditions: radioligand [^3H]-PK 11195
Source text: as §1

logD 7.4 = format: physicochemical; conditions: octanol/water, pH 7.4
Source text: TABLE 2 Physicochemical and ADMET profile for RG7774.

[1] = target: T1, endogenous CB2R in mouse spleen tissues (Mus musculus, UniProt P47936); test: Competition binding, [^3H]-RO6753361, mouse spleen membranes
T1 construct: from tissue; host or cells: mouse spleen membranes
T1 sequence (P47936 whole entry): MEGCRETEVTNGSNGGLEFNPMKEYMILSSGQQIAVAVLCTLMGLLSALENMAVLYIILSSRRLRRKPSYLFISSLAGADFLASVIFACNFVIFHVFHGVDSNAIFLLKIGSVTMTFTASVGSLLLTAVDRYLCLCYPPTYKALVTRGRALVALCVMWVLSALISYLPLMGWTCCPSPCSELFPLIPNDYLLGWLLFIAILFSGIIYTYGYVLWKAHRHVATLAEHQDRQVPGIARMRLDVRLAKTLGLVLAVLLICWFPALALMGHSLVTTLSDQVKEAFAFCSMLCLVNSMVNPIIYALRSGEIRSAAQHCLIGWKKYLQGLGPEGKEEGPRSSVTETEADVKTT
Procedure: Competition and saturation binding assays were performed using the radiolabeled CB1R/CB2R agonist [^3H]-CP55940 (PerkinElmer, Waltham, MA, United States) in recombinant cell systems, and the newly developed CB2R-selective agonist [^3H]-RO6753361 ([Chicca et al., 2024]) in cells expressing endogenous CB1R/CB2R. Competition assays were conducted by incubating 5, 40, or 40 µg of membrane protein from CHO cells, Jurkat cells or spleen cells, respectively, with 1.5 nM [^3H]-CP55940 or 1.5 nM [^3H]-RO6753361 in the presence or absence of increasing concentrations of ligand (RG7774 or control) for 2 h at 30°C in a final volume of 0.2 mL of assay buffer (50 mmol/L Tris-HCl, 5 mmol/L MgCl2, 2.5 mmol/L EDTA, and 0.5% fatty acid-free BSA [pH 7.4] and 1% DMSO), with gentle shaking. Saturation binding assays were conducted by incubating 1–3 μg, 40 μg, or 30–40 μg of membrane protein from CHO cells, Jurkat cells, or spleen tissue, respectively, with 12 concentrations in the range of 80–0.039 nM [^3H]-CP55940 or [^3H]-RO6753361 for 2 h at 30°C in a final volume of 0.2 mL/well of assay buffer without DMSO. […] IC50 values and Hill slopes were determined with a 4-parameter logistic model using ActivityBase (ID Business Solution, Guilford, United Kingdom) and pKi values were determined using the Cheng-Prusoff equation ([Cheng and Prusoff, 1973]).

Chain of Y1 (h) (P25929 whole entry): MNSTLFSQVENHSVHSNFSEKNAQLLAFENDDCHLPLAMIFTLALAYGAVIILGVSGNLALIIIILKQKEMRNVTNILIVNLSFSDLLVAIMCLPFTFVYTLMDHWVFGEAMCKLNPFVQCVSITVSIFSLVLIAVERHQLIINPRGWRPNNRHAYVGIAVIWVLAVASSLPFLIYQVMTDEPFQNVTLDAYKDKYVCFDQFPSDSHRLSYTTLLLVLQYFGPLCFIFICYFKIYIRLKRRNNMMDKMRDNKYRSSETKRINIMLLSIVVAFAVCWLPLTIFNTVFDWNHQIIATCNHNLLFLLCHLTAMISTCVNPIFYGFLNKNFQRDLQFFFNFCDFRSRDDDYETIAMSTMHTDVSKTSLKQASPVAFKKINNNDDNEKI

In the case of `Cn1nnnc1Cn1nnc2c(N3CC[C@H](O)C3)nc(C(C)(C)C)nc21` [RG7774, (S)-1-(5-tert-butyl-3-[(1-methyl-1H-tetrazol-5-yl)methyl]-3H-[1,2,3]triazolo[4,5-d]pyrimidin-7-yl)pyrrolidin-3-ol], the “% inhibition of control SB (n = 2)” value (Y1 (h)) is reported as “–5.5%”, the “% inhibition of control SB (n = 2)” value (Cl- channel (GABA-gated)) is reported as 17.2% and the “% inhibition of control SB (n = 2)” value (D5) is reported as “–2.0%”. The “% inhibition of control SB (n = 2)” value (δ(DOP) (h)) was 4.7%, the “% inhibition of control SB (n = 2)” value (H1 (h)) was “–8.8%” and the “% inhibition of control SB (n = 2)” value (A2A (h)) was 12.4%. For the same compound, the “% inhibition of control SB (n = 2)” value (Alpha 1 (non-selective)) was 6.9%, the “% inhibition of control SB (n = 2)” value (P2X) was 25.9% and the “% inhibition of control SB (n = 2)” value (5-HT1A (h)) was 3.6%. The “% inhibition of control SB (n = 2)” value (CCK2 (CCKB) (h)) was “–7.6%”, the “% inhibition of control SB (n = 2)” value (5-HT2A (h)) was “–4.8%” and the “% inhibition of control SB (n = 2)” value (CCR1) was 5.6%. The “% inhibition of control SB (n = 2)” value (5-HT2C (h)) was 2.7%, the “% inhibition of control SB (n = 2)” value (GR (h)) was 3.0% and the “% inhibition of control SB (n = 2)” value (BZD (peripheral)) was “–12.0%”. The logD (logD 7.4) was 2.2 and the Ki [1] was 39.7 ± 13.5 nM.
